Numbers after ± are expanded uncertainties.
Test: xn = mol fraction of the nth substance listed
Settings: Gas, isochoric method

C=CC(F)(F)F [1,1,1-trifluoro-2-propene] + CC(C)C
Settings | specific volume [m3/kg]
303.15 K, 47.6 kPa, x2 = 0.282 | 0.6134 ± 0.11
303.15 K, 169.8 kPa, x2 = 0.898 | 0.2302 ± 0.0041
308.15 K, 48.4 kPa, x2 = 0.282 | 0.6136 ± 0.0091
308.15 K, 172.8 kPa, x2 = 0.898 | 0.2303 ± 0.0041
308.15 K, 192.7 kPa, x2 = 0.434 | 0.1611 ± 0.0041
308.15 K, 289.5 kPa, x2 = 0.225 | 0.0942 ± 0.0093
313.15 K, 49.2 kPa, x2 = 0.282 | 0.6137 ± 0.0088
313.15 K, 175.8 kPa, x2 = 0.898 | 0.2303 ± 0.0041
313.15 K, 196 kPa, x2 = 0.434 | 0.1611 ± 0.004
313.15 K, 294.8 kPa, x2 = 0.225 | 0.0943 ± 0.0093
318.15 K, 50 kPa, x2 = 0.282 | 0.6139 ± 0.0085
318.15 K, 178.7 kPa, x2 = 0.898 | 0.2304 ± 0.0041
318.15 K, 199.4 kPa, x2 = 0.434 | 0.1611 ± 0.004
318.15 K, 300.1 kPa, x2 = 0.225 | 0.0943 ± 0.0094
323.15 K, 50.8 kPa, x2 = 0.282 | 0.614 ± 0.0082
323.15 K, 181.7 kPa, x2 = 0.898 | 0.2304 ± 0.0041
323.15 K, 202.4 kPa, x2 = 0.434 | 0.1612 ± 0.0039
323.15 K, 305.3 kPa, x2 = 0.225 | 0.0943 ± 0.0093
328.15 K, 51.6 kPa, x2 = 0.282 | 0.6141 ± 0.0079
328.15 K, 184.7 kPa, x2 = 0.898 | 0.2305 ± 0.0041
328.15 K, 205.9 kPa, x2 = 0.434 | 0.1612 ± 0.0039
328.15 K, 310.5 kPa, x2 = 0.225 | 0.0943 ± 0.0093
333.15 K, 52.4 kPa, x2 = 0.282 | 0.6143 ± 0.0075
333.15 K, 187.6 kPa, x2 = 0.898 | 0.2305 ± 0.004
333.15 K, 209.4 kPa, x2 = 0.434 | 0.1613 ± 0.0039
333.15 K, 315.8 kPa, x2 = 0.225 | 0.0943 ± 0.0094
338.15 K, 53.2 kPa, x2 = 0.282 | 0.6144 ± 0.0073
338.15 K, 190.4 kPa, x2 = 0.898 | 0.2306 ± 0.0041
338.15 K, 212 kPa, x2 = 0.434 | 0.1613 ± 0.0038
338.15 K, 320.9 kPa, x2 = 0.225 | 0.0944 ± 0.0094
343.15 K, 54 kPa, x2 = 0.282 | 0.6145 ± 0.007
343.15 K, 193.4 kPa, x2 = 0.898 | 0.2306 ± 0.0041
343.15 K, 215.5 kPa, x2 = 0.434 | 0.1613 ± 0.0038
343.15 K, 326.1 kPa, x2 = 0.225 | 0.0944 ± 0.0094
348.15 K, 54.8 kPa, x2 = 0.282 | 0.6147 ± 0.0067
348.15 K, 196.3 kPa, x2 = 0.898 | 0.2307 ± 0.004
348.15 K, 218.9 kPa, x2 = 0.434 | 0.1614 ± 0.0038
348.15 K, 331.3 kPa, x2 = 0.225 | 0.0944 ± 0.0094
353.15 K, 55.6 kPa, x2 = 0.282 | 0.6148 ± 0.0064
353.15 K, 199.4 kPa, x2 = 0.898 | 0.2307 ± 0.004
353.15 K, 222.4 kPa, x2 = 0.434 | 0.1614 ± 0.0037
353.15 K, 336.5 kPa, x2 = 0.225 | 0.0944 ± 0.0094
358.15 K, 56.4 kPa, x2 = 0.282 | 0.6149 ± 0.0062
358.15 K, 202.3 kPa, x2 = 0.898 | 0.2308 ± 0.004
358.15 K, 225 kPa, x2 = 0.434 | 0.1614 ± 0.0037
358.15 K, 341.6 kPa, x2 = 0.225 | 0.0944 ± 0.0094
363.15 K, 57.2 kPa, x2 = 0.282 | 0.6151 ± 0.006
363.15 K, 205.3 kPa, x2 = 0.898 | 0.2308 ± 0.004
363.15 K, 228.5 kPa, x2 = 0.434 | 0.1615 ± 0.0037
363.15 K, 346.8 kPa, x2 = 0.225 | 0.0945 ± 0.0094
368.15 K, 58.1 kPa, x2 = 0.282 | 0.6152 ± 0.0057
368.15 K, 208.1 kPa, x2 = 0.898 | 0.2309 ± 0.004
368.15 K, 231.9 kPa, x2 = 0.434 | 0.1615 ± 0.0037
368.15 K, 351.9 kPa, x2 = 0.225 | 0.0945 ± 0.0094
373.15 K, 58.8 kPa, x2 = 0.282 | 0.6153 ± 0.0055
373.15 K, 211.1 kPa, x2 = 0.898 | 0.2309 ± 0.0039
373.15 K, 235.2 kPa, x2 = 0.434 | 0.1615 ± 0.0037
373.15 K, 357.1 kPa, x2 = 0.225 | 0.0945 ± 0.0096
378.15 K, 59.7 kPa, x2 = 0.282 | 0.6155 ± 0.0054
378.15 K, 213.4 kPa, x2 = 0.898 | 0.231 ± 0.0039
378.15 K, 236.9 kPa, x2 = 0.434 | 0.1616 ± 0.0036
378.15 K, 362.3 kPa, x2 = 0.225 | 0.0945 ± 0.0096
383.15 K, 60.5 kPa, x2 = 0.282 | 0.6156 ± 0.0051
383.15 K, 217.1 kPa, x2 = 0.898 | 0.231 ± 0.0042
383.15 K, 240.1 kPa, x2 = 0.434 | 0.1616 ± 0.0036
383.15 K, 367.5 kPa, x2 = 0.225 | 0.0946 ± 0.0094
